Results published in patent US20050107289A1, “Anti-microbial peptides and compositions” (priority 2001, published 2005).
Like-named read-outs stand apart in the source and are kept apart here. Non-standard residues stand in square brackets, D forms with d. Residues, ends and D or L forms follow the SMILES beside them.

Experiments:
[1] = system: S. aureus (MRSA) ATCC 33591; format: cell-based, Staphylococcus aureus; settings: for MRSA (in vitro activity): Table 9; for S. aureus (MRSA) MIC: ATCC 33591
Procedure: (§1) The antimicrobial activity of the peptides was determined using a broth dilution assay essentially as descried in the guidelines of the National Committee for […] (NCCLS) [National Committee for Clinical Laboratory Standards. Methods for dilution antimicrobial susceptibility tests for bacteria that grow aerobically. Fourth edition. Approved Standard (1997). Document M7-A4. […] The microdilution method has the advantages of requiring less amount of peptide for each assay and the possibility of multiple simultaneous inoculations and was used in most studies. Several of the strains of bacteria tested are further described in Table 3.
(§2) Preparation of peptide solutions. Stock peptide solutions were prepared in 5% DMSO in aq. sucrose (9%). Determination of peptide concentrations was done by quantitative HPLC analysis using known concentrations of internal standards and/or by measuring UV absorption of tryptophane-containing peptide solutions in H2O (λ=280 εTrp: 5690). Serial 2-fold dilutions were made in the above DMSO/aq. sucrose (9%) mixture with concentrations ranging approximately 400-2 μg/ml and aliquots were dispensed in test tubes (100 μl) for the macrodilution test or in microtiter plates (20 μl) for the microdilution assays.
(§3) Inoculum preparation. Overnight cultures of different microorganisms grown in suitable media were diluted 4000 times to an approximate inoculum size of 2.5×10^5 cfu/ml.
(§4) Macrodilution method. Macrodilution methods were performed using procedures similar to those described in the National Committee for Clinical Laboratory Standards. Methods for dilution antimicrobial susceptibility tests for bacteria that grow aerobically. Fourth edition. Approved Standard (1997). Document M7-A4. (NCCLS,Villanova, Pa., 1997). Two ml aliquots of the above inoculum were dispensed to test tubes containing different peptide solutions.
(§5) Microdilution method. Microdilution methods were performed using procedures similar to those described in the National Committee for Clinical Laboratory Standards. Methods for dilution antimicrobial susceptibility tests for bacteria that grow aerobically. Fourth edition. Approved Standard (1997). Document M7-A4.

murine red blood cells = experiment: Red blood cell hemolysis; format: cell-based, mouse
Procedure: Selectivity of cyclic peptides for bacterial over mammalian cells was evaluated by measuring red blood cell hemolytic activities as described in Tosteson, M. T. Holmes, S. J., Razin, M. and Tosteson, D. C. Melittin Lysis of Red Cells, J. Membrane Biol. 87, 35-44(1985). Heparinized murine blood was centrifuged at 1000×g for 10 minutes. The supernatant and the buffy coat were removed. Erythrocytes were washed three times with 0.9% saline solution and then resuspended to a concentration of 5% in saline containing 10% FBS (v/v). Red blood cells were then treated with serial dilutions of test peptides in a 96 well plate at 37° C. for 30 minutes. Control samples included a saline solution arid 1% Triton X-100 as 0 and 100% hemolysis, respectively. In some cases, mellitin was used as a further control. Mellitin is a linear peptide that is hemolytic against mammalian red blood cells in vitro at a concentration of about 10 μg/ml. Plates were centrifuged at 1000 g for 10 minutes. Aliquots of the supernatant were diluted 2 times with saline solution and the absorbance was measured at 560 nm.

[2] = system: vancomycin-resistant Enterococus faecalis (VRE)(ATCC 51575); format: cell-based, Enterococcus faecalis; parameters: key to VRE (in vitro activity): peptide concentration in μg/ml (broth dilution assay); settings: Table 9
Procedure: as §1, §2, §3, §4, §5

[3] = media b: cation adjusted Meuller Hinton broth (MHBII)
[4] = media c: Brain Heart Infusion (BHI)
[5] = media a: anti-microbial media-3 (AM-3)

SMILES | RBC Hemolysis (HD50) (murine red blood cells) | S. aureus (MRSA) MIC [1] [µg/mL] | MRSA (in vitro activity) [1, 5] | VRE (in vitro activity) ([2]; media a: AM-3) | other results
CC(C)C[C@H]1NC(=O)[C@H](CCCCN)NC(=O)[C@@H](CC(C)C)NC(=O)[C@H](CCCCN)NC(=O)[C@@H](CC(C)C)NC(=O)[C@H](CCCCN)NC(=O)[C@@H](CC(C)C)NC(=O)[C@H](CCCCN)NC1=O [SEQ ID NO:4, KLKLKLKL] (cyclo(K[dL]K[dL]K[dL]K[dL])) | >200 | – | – | – | MRSA (in vitro activity) [1, 3]: >200; VRE (in vitro activity) [2, 4]: >200
CC(C)C[C@@H](NC(=O)[C@H](Cc1c[nH]c2ccccc12)NC(=O)[C@@H](CC(C)C)NC(=O)[C@H](Cc1c[nH]c2ccccc12)NC(=O)[C@@H](CCCCN)NC(=O)[C@H](CCCCN)NC(=O)[C@@H](CCCCN)NC(=O)[C@@H](N)Cc1c[nH]c2ccccc12)C(=O)N[C@@H](Cc1c[nH]c2ccccc12)C(=O)O [SEQ ID NO:23, WKKKWLWLW] (H-W[dK]K[dK]W[dL]W[dL]W-OH; N-terminus and C-terminus assumed) | – | 60 | – | – | –
CC(C)C[C@@H](NC(=O)[C@H](Cc1c[nH]c2ccccc12)NC(=O)[C@@H](CC(C)C)NC(=O)[C@H](Cc1c[nH]c2ccccc12)NC(=O)[C@@H](CCCCN)NC(=O)[C@H](CCCCN)NC(=O)[C@H](N)CCCCN)C(=O)N[C@@H](Cc1c[nH]c2ccccc12)C(=O)O [SEQ ID NO:24, KKKWLWLW] (H-[dK]K[dK]W[dL]W[dL]W-OH; N-terminus and C-terminus assumed) | – | 50 | – | – | –
CC(C)C[C@@H]1NC(=O)[C@@H](Cc2c[nH]c3ccccc23)NC(=O)[C@H](Cc2c[nH]c3ccccc23)NC(=O)[C@@H](CCCNC(=N)N)NC(=O)[C@H](CCC(N)=O)NC(=O)[C@@H](CCCNC(=N)N)NC(=O)[C@H](Cc2c[nH]c3ccccc23)NC(=O)[C@@H](Cc2c[nH]c3ccccc23)NC1=O [SEQ ID NO:36, QRWWLWWR] (cyclo(Q[dR]W[dW]L[dW]W[dR])) | – | 2.5 to 3.8 | – | – | –
CC(C)C[C@@H]1NC(=O)[C@@H](Cc2c[nH]c3ccccc23)NC(=O)[C@H](C(C)C)NC(=O)[C@@H](CCCNC(=N)N)NC(=O)[C@H](CCC(N)=O)NC(=O)[C@@H](CCCNC(=N)N)NC(=O)[C@H](Cc2c[nH]c3ccccc23)NC(=O)[C@@H](Cc2c[nH]c3ccccc23)NC1=O [SEQ ID NO:38, QRVWLWWR] (cyclo(Q[dR]V[dW]L[dW]W[dR])) | – | 2.5 to 3.8 | – | – | –
CC(C)C[C@@H]1NC(=O)[C@@H](Cc2c[nH]c3ccccc23)NC(=O)[C@H](Cc2ccccc2)NC(=O)[C@@H](CCCNC(=N)N)NC(=O)[C@H](CCC(N)=O)NC(=O)[C@@H](CCCNC(=N)N)NC(=O)[C@H](Cc2c[nH]c3ccccc23)NC(=O)[C@@H](Cc2c[nH]c3ccccc23)NC1=O [SEQ ID NO:39, QRFWLWWR] (cyclo(Q[dR]F[dW]L[dW]W[dR])) | – | 2.5 to 3.8 | – | – | –
CC(C)C[C@H]1NC(=O)[C@H](Cc2c[nH]c3ccccc23)NC(=O)[C@@H](Cc2ccccc2)NC(=O)[C@H](CCCCN)NC(=O)[C@@H](Cc2ccccc2)NC(=O)[C@H](Cc2c[nH]c3ccccc23)NC(=O)[C@@H](CC(C)C)NC(=O)[C@H](Cc2c[nH]c3ccccc23)NC1=O [SEQ ID NO:40, [KFWLWLWF]] (cyclo(K[dF]W[dL]W[dL]W[dF])) | >44 | – | 33 | >44 | –
CC(C)C[C@H]1NC(=O)[C@H](CCCCN)NC(=O)[C@@H](CC(C)C)NC(=O)[C@H](Cc2c[nH]c3ccccc23)NC(=O)[C@@H](CC(C)C)NC(=O)[C@H](Cc2c[nH]c3ccccc23)NC(=O)[C@@H](CC(C)C)NC(=O)[C@H](Cc2c[nH]c3ccccc23)NC1=O [SEQ ID NO:41, [KLWLWLWL]] (cyclo(K[dL]W[dL]W[dL]W[dL])) | 30 | – | – | – | MRSA (in vitro activity) [1, 3]: 12; VRE (in vitro activity) [2, 4]: 25
CC(C)C[C@H]1NC(=O)[C@H](Cc2c[nH]c3ccccc23)NC(=O)[C@@H](CO)NC(=O)[C@H](CCCCN)NC(=O)[C@@H](Cc2ccccc2)NC(=O)[C@H](Cc2c[nH]c3ccccc23)NC(=O)[C@@H](CC(C)C)NC(=O)[C@H](Cc2c[nH]c3ccccc23)NC1=O [SEQ ID NO:42, [KSWLWLWF]] (cyclo(K[dS]W[dL]W[dL]W[dF])) | >26 | – | >26 | >26 | –
CC(C)C[C@H]1NC(=O)[C@H](Cc2c[nH]c3ccccc23)NC(=O)[C@@H](Cc2c[nH]c3ccccc23)NC(=O)[C@H](CCCCN)NC(=O)[C@@H](Cc2c[nH]cn2)NC(=O)[C@H](Cc2c[nH]c3ccccc23)NC(=O)[C@@H](CC(C)C)NC(=O)[C@H](Cc2c[nH]c3ccccc23)NC1=O [SEQ ID NO:43, [KWWLWLWH]] (cyclo(K[dW]W[dL]W[dL]W[dH])) | >23 | – | 13 | 17 | –
CC(C)C[C@H]1NC(=O)[C@H](Cc2c[nH]c3ccccc23)NC(=O)[C@@H](Cc2c[nH]c3ccccc23)NC(=O)[C@H](CCCCN)NC(=O)[C@@H](Cc2c[nH]c3ccccc23)NC(=O)[C@H](CCCCN)NC(=O)[C@@H](CC(C)C)NC(=O)[C@H](Cc2c[nH]c3ccccc23)NC1=O [SEQ ID NO:44, [KWWLWLKW]] (cyclo(K[dW]W[dL]W[dL]K[dW])) | >58 | – | 4 | 4 | –
CC(C)C[C@H]1NC(=O)[C@H](C)NC(=O)[C@@H](CC(C)C)NC(=O)[C@H](CCCCN)NC(=O)[C@@H](Cc2c[nH]cn2)NC(=O)[C@H](CCCCN)NC(=O)[C@@H](CC(C)C)NC(=O)[C@H](C)NC1=O [SEQ ID NO:45, [KHKLALAL]] (cyclo(K[dH]K[dL]A[dL]A[dL])) | >200 | – | – | – | MRSA (in vitro activity) [1, 3]: 50; VRE (in vitro activity) [2, 4]: 200
CC(C)C[C@H]1NC(=O)[C@H](C)NC(=O)[C@@H](CC(C)C)NC(=O)[C@H](CCCCN)NC(=O)[C@@H](Cc2c[nH]cn2)NC(=O)[C@H](CCCCN)NC(=O)[C@@H](CC(C)C)NC(=O)[C@H](Cc2c[nH]c3ccccc23)NC1=O [SEQ ID NO:46, [KHKLALWL]] (cyclo(K[dH]K[dL]A[dL]W[dL])) | >200 | – | – | – | MRSA (in vitro activity) [1, 3]: 25; VRE (in vitro activity) [2, 4]: 50
CC(C)C[C@H]1NC(=O)[C@H](CCCCN)NC(=O)[C@@H](CO)NC(=O)[C@H](CCCCN)NC(=O)[C@@H](CC(C)C)NC(=O)[C@H](Cc2ccccc2)NC(=O)[C@@H](CC(C)C)NC(=O)[C@H](Cc2ccccc2)NC1=O [SEQ ID NO:55, [KSKLFLFL]] (cyclo(F[dL]F[dL]K[dS]K[dL])) | – | – | – | – | MRSA (in vitro activity) ([1]; media b: cation adjusted Meuller Hinton broth (MHBII), listed as [KSKLFLFL] (55)): 200; VRE (in vitro activity) ([2]; media b: MHBII): 50
CC[C@H](C)[C@@H]1NC(=O)[C@@H](CC(C)C)NC(=O)[C@H](CCCCN)NC(=O)[C@@H](CO)NC(=O)[C@H](CCCCN)NC(=O)[C@@H](CC(C)C)NC(=O)[C@H]([C@@H](C)CC)NC(=O)[C@@H](CC(C)C)NC1=O [SEQ ID NO:58, [KSKLILIL]] (cyclo(I[dL]I[dL]K[dS]K[dL])) | – | – | – | – | MRSA (in vitro activity) ([1]; media b: cation adjusted Meuller Hinton broth (MHBII), listed as [KSKLILIL] (58)): >200; VRE (in vitro activity) ([2]; media b: MHBII): 50
C[C@H](O)[C@H]1NC(=O)[C@H](CCCNC(=N)N)NC(=O)[C@@H](CO)NC(=O)[C@H](CCC(N)=O)NC(=O)[C@@H](Cc2c[nH]cn2)NC(=O)[C@H](CCCCN)NC1=O [SEQ ID NO:131, [KHQSRT]] (cyclo(K[dH]Q[dS]R[dT])) | – | – | >200 | >200 | –
